Values after ≈ are worked out from the molar mass of the structure shown.
Experiments:
P38b MAPK = P38b MAPK (Homo sapiens, UniProt Q15759); assay: Kinase panel: P38b MAPK; type: biochemical, human/mammalian; details: compound at 10 μM, read-out: % of activity respect of the control
Procedure: (§1) The DDU kinase-focused compound set contains lead-like scaffolds that are designed to target protein kinases; they have kinase hinge binding motifs. Four of the 1H-imidazopyrazinones were screened against a human/mammalian kinase panel at the University of Dundee (http://www.kinase-screen.mrc.ac.uk) at a concentration of 10 μM. At the time of testing the panel contained 79 mammalian kinases selected to provide a broad coverage of the mammalian kinome (∼500 kinases in the human genome).[3] None of the compounds were active against any of the kinases at 10 μM.

[1] = test system: MRC5 cells (human lung fibroblasts); assay: MRC5 proliferation assay; type: cell-based; details: geometric mean of two or more determinations
Procedure: Trypanosome and MRC5 proliferation assay: Measurement of inhibition of the proliferation of MRC5 cells (human lung fibroblasts) and T. brucei bloodstream-stage cells was performed using a modification of a cell viability assay previously described.[35, 36] Compounds ([…] to 0.5 nM) were incubated with 2×10^3 cells per well in 0.2 mL of the appropriate culture medium (MEM with 10 % foetal bovine serum for MRC5 cells) in clear 96-well plates. Plates were incubated at 37 °C in the presence of 5 % CO2 for 69 h. Resazurin was then added to a final concentration of 50 μM, and plates were incubated as above for a further 4 h before being read on a BioTek Flx800 fluorescence plate reader.

ROCK 2 = ROCK 2 (Homo sapiens, UniProt O75116); assay: Kinase panel: ROCK 2; type: biochemical, human/mammalian; details: compound at 10 μM, read-out: % of activity respect of the control
Chain of ROCK 2 (O75116 whole entry): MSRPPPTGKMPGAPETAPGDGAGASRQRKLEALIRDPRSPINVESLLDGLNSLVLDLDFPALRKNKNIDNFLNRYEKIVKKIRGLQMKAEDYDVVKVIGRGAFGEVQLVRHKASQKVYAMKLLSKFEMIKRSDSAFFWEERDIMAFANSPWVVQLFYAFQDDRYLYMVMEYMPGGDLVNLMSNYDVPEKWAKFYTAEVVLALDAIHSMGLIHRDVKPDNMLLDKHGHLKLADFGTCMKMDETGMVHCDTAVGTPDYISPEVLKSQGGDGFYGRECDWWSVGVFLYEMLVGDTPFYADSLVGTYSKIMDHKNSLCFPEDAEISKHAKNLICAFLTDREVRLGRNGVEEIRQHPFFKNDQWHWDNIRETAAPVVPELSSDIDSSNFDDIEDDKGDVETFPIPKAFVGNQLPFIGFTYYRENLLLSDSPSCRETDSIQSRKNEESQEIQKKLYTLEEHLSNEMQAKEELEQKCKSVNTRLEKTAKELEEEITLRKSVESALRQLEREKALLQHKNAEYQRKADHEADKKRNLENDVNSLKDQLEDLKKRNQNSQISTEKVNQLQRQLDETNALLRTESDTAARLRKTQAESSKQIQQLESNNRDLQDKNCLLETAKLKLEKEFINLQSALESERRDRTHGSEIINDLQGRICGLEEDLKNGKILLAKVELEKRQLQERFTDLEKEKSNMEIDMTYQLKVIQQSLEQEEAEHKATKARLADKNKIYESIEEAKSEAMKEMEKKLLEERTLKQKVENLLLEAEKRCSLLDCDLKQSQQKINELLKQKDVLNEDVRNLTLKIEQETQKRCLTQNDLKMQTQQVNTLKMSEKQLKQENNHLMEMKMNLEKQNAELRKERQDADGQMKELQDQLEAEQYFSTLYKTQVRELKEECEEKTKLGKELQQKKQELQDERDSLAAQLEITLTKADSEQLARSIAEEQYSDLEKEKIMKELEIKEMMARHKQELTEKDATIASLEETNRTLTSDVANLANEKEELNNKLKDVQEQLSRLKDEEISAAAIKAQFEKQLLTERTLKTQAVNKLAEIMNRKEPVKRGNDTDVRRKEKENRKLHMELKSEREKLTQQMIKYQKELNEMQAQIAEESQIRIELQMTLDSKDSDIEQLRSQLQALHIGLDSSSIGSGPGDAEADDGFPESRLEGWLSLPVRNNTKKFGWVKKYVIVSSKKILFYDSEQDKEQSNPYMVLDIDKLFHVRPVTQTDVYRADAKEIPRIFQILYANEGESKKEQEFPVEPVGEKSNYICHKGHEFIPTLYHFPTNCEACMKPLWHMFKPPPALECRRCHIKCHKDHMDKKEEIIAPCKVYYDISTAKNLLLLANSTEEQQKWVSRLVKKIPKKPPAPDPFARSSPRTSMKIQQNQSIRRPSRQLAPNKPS
Procedure: as §1

[2] = Kinetic aqueous solubility (laser nephelometry); type: physicochemical; details: Milli-Q water with 2.5% DMSO, kinetic from dmso stock, range 250–12 μM, read-out: Aq. Sol. (aqueous kinetic solubility)
Procedure: Solubility experiments: The kinetic aqueous solubility of the test compounds was measured using laser nephelometry. Compounds were subject to serial dilution from 10 mM to 0.5 mM in DMSO. An aliquot was then mixed with Milli-Q H2O to obtain an aqueous dilution plate with a final concentration range of 250–12 μM, with a final DMSO concentration of 2.5 %. Triplicate aliquots were transferred to a flat-bottomed polystyrene plate which was immediately read on the NEPHELOstar (BMG Lab Technologies). The amount of laser scatter caused by insoluble particulates (relative nephelometry units, RNU) was plotted against compound concentration using a segmental regression fit, with the point of inflection being quoted as the compounds′ aqueous solubility (in μM).

IKKb = target: T1, IKKb (Homo sapiens, UniProt O14920); assay: Kinase panel: IKKb; type: biochemical, human/mammalian; details: compound at 10 μM, read-out: % of activity respect of the control
T1 sequence (O14920 1-756): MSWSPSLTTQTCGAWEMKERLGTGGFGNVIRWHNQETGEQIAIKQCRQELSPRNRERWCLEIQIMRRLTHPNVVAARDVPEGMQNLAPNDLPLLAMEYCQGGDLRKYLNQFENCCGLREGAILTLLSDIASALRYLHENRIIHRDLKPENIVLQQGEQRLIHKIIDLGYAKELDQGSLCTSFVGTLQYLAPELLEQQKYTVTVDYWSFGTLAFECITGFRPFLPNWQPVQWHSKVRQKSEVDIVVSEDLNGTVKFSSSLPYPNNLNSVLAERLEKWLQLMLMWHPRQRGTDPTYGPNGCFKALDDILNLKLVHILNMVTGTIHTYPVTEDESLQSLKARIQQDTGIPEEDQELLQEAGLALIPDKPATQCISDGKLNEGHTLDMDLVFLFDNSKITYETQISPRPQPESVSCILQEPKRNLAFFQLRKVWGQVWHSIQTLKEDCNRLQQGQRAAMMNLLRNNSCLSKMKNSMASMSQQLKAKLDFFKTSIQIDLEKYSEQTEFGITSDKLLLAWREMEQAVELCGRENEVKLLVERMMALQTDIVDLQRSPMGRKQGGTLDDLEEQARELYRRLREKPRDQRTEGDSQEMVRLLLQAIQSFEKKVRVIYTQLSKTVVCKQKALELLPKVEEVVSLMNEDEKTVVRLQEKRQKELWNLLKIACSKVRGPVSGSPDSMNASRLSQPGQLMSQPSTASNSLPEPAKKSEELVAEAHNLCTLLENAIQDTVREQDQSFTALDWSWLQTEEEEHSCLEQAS
Procedure: as §1

CHK1 = target: T2, CHK1 (Homo sapiens, UniProt O14757); assay: Kinase panel: CHK1; type: biochemical, human/mammalian; details: compound at 10 μM, read-out: % of activity respect of the control
T2 sequence (O14757 1-476): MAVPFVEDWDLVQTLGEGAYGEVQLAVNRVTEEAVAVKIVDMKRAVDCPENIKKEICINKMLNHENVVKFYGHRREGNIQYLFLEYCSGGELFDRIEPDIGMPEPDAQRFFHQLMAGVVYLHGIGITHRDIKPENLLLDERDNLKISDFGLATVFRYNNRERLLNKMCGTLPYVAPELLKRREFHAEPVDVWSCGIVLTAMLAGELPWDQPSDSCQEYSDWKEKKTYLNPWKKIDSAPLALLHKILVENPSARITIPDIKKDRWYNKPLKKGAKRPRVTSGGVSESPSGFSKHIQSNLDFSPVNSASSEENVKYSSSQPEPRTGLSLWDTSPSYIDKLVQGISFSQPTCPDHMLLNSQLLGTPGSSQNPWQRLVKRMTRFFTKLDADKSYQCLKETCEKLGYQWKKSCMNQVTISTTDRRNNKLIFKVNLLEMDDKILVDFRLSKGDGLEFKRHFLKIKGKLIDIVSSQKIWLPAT
Procedure: as §1

IRR = IRR (Homo sapiens, UniProt P14616); assay: Kinase panel: IRR; type: biochemical, human/mammalian; details: compound at 10 μM, read-out: % of activity respect of the control
Chain of IRR (P14616 27-1297): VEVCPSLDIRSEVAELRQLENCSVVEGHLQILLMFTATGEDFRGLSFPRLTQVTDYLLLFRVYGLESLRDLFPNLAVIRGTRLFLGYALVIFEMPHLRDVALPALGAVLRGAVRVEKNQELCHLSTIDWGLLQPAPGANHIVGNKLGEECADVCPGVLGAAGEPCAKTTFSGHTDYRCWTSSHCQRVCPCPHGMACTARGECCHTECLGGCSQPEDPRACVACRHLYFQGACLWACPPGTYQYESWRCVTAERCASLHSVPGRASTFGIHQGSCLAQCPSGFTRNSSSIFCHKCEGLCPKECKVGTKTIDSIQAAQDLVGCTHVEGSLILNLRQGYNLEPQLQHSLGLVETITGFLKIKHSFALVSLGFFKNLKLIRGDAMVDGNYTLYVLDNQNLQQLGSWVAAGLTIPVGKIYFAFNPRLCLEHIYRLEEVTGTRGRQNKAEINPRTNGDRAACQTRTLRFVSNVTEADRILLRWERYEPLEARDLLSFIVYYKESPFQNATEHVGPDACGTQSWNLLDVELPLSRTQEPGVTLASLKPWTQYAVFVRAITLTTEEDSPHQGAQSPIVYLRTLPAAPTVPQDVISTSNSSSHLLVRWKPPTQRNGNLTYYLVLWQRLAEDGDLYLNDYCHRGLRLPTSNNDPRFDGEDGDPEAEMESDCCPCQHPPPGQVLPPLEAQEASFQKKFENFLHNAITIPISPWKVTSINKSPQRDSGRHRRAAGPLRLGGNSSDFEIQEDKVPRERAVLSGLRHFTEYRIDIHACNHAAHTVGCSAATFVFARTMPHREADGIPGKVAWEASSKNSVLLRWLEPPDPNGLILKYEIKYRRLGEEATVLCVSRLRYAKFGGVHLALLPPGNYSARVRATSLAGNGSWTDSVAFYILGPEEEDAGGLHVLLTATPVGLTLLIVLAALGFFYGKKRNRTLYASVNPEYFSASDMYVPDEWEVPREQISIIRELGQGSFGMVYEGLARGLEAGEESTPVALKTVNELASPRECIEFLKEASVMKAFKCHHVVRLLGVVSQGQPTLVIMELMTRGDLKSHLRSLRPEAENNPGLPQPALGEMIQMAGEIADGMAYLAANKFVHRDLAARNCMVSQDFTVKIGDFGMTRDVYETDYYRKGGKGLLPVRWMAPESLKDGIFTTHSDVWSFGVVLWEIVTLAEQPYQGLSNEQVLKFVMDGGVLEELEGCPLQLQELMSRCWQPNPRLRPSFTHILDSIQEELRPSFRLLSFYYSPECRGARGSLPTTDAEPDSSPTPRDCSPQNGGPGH
Procedure: as §1

ERK8 = target: T3, ERK8 (Homo sapiens, UniProt Q8TD08); assay: Kinase panel: ERK8; type: biochemical, human/mammalian; details: compound at 10 μM, read-out: % of activity respect of the control
T3 sequence (Q8TD08 1-544): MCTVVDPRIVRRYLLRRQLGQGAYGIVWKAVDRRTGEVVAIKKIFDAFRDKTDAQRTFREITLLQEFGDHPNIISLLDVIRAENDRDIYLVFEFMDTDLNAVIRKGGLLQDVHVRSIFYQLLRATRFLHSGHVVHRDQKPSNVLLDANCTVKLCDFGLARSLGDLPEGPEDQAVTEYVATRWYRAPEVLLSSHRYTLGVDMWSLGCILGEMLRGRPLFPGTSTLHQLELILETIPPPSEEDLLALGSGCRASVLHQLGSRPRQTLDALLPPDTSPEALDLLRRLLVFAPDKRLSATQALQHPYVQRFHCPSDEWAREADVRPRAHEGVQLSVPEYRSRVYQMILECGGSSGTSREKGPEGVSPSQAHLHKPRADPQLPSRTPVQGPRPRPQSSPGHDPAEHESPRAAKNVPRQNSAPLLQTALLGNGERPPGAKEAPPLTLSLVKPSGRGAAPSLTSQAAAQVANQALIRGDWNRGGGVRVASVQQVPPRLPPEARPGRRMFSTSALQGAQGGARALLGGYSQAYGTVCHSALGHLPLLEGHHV
Procedure: as §1

BTK = BTK (Homo sapiens, UniProt Q06187); assay: Kinase panel: BTK; type: biochemical, human/mammalian; details: compound at 10 μM, read-out: % of activity respect of the control
Chain of BTK (Q06187 whole entry): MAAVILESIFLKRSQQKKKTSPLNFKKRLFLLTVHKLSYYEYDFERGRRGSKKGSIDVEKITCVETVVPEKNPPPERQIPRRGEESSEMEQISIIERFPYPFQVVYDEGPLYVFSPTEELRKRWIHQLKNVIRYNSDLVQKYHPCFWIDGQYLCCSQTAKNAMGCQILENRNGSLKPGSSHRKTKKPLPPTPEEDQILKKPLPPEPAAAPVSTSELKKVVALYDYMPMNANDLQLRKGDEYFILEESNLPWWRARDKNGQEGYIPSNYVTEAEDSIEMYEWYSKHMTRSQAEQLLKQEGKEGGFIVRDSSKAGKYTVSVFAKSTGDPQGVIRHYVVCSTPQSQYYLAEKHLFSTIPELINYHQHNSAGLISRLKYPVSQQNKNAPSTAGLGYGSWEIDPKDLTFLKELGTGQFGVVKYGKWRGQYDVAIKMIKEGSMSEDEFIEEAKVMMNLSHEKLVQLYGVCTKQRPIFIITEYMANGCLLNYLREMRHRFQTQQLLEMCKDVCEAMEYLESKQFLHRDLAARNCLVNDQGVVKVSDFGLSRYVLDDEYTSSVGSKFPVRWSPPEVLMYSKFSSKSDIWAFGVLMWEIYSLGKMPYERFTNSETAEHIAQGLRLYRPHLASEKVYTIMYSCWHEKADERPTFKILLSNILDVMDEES
Procedure: as §1

Chain of P38b MAPK (Q15759 whole entry): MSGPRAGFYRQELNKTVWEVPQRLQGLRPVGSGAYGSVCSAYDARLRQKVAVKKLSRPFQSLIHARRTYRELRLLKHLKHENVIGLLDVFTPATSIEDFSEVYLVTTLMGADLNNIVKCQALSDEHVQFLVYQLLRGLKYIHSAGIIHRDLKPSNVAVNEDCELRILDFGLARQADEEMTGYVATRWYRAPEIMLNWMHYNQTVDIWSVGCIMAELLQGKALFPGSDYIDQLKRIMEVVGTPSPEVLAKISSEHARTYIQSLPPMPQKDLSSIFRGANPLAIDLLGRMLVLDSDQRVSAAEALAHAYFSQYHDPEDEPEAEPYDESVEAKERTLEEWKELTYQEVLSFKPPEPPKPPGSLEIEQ

CC(c1ccccc1)n1c(=O)[nH]c2ncc(-c3ccc(F)cc3)nc21 (stereo not shown) [Compound 1]
remaining activity at 10 µM (P38b MAPK): 84% | EC50 [1]: > 50 µM | remaining activity at 10 µM (ROCK 2): 105% | solubility kinetic [2]: < 12 µM | remaining activity at 10 µM (IKKb): 103% | remaining activity at 10 µM (CHK1): 100% | remaining activity at 10 µM (IRR): 96% | remaining activity at 10 µM (ERK8): 73% | remaining activity at 10 µM (BTK): 113%

O=c1[nH]c2ncc(-c3ccc(F)cc3)nc2n1CC1CC1 [Compound 10]
remaining activity at 10 µM (P38b MAPK): 101% | EC50 [1]: > 50 µM | remaining activity at 10 µM (ROCK 2): 78% | remaining activity at 10 µM (IKKb): 105% | remaining activity at 10 µM (CHK1): 90% | remaining activity at 10 µM (IRR): 104% | remaining activity at 10 µM (ERK8): 70% | remaining activity at 10 µM (BTK): 104%

O=c1[nH]c2ncc(-c3ccc(F)cc3)nc2n1C1CCCCC1 [Compound 12, 1-Cyclohexyl-6-(4-fluorophenyl)-1H-imidazo[4,5-b]pyrazin-2(3H)-one]
remaining activity at 10 µM (P38b MAPK): 122% | EC50 [1]: > 50 µM | remaining activity at 10 µM (ROCK 2): 84% | solubility kinetic [2]: 55 µM (≈ 17.2 µg/mL) | remaining activity at 10 µM (IKKb): 94% | remaining activity at 10 µM (CHK1): 96% | remaining activity at 10 µM (IRR): 83% | remaining activity at 10 µM (ERK8): 80% | remaining activity at 10 µM (BTK): 111%

C[C@H](c1ccccc1)n1c(=O)[nH]c2ncc(-c3ccccc3)nc21 [Compound 14, (R)-6-Phenyl-1-(1-phenylethyl)-1H-imidazo[4,5-b]pyrazin-2(3H)-one]
remaining activity at 10 µM (P38b MAPK): 95% | EC50 [1]: 26 µM | remaining activity at 10 µM (ROCK 2): 85% | solubility kinetic [2]: < 12 µM | remaining activity at 10 µM (IKKb): 77% | remaining activity at 10 µM (CHK1): 94% | remaining activity at 10 µM (IRR): 112% | remaining activity at 10 µM (ERK8): 79% | remaining activity at 10 µM (BTK): 97%

O=c1[nH]c2ncc(-c3ccccc3CO)nc2n1C1CCCCC1 [Compound 28]
EC50 [1]: > 50 µM | solubility kinetic [2]: > 250 µM

— article PMC4648050, “Discovery of Inhibitors of Trypanosoma brucei by Phenotypic Screening of a Focused Protein Kinase Library” (Chemmedchem, 2015)
